Patent EP1370663B1, “MICROBIOLOGICAL METHOD FOR PRODUCING L-CARNITINE” (priority 2001, dated 2002)

Legend:
[1] = Control: storage of butyrobetaine esters in the medium without cells (hydrolytic stability); assay type: physicochemical; settings: same medium and conditions as Example 2 (30°C, 74 h) but without cells
Description: Die Stämme HK13 (DSM 2903) und HK1349 (DSM 3944) wurden jeweils in "Nutrient Yeast broth" Vorkulturmedium (10 mL), welchem L-Carnitin (0,05% (w/v)) als Induktor des L-Carnitinstoffwechsels zugesetzt wurde, überimpft und 2 Tage bei 30°C und 140 upm inkubiert. Die Vorkulturen (0,01 mL) wurde in das Minimalmedium (10 mL), welches zusätzlich 0,02% (w/v) Betain, 0,05% (v/v) Glycerin, 0,50% (w/v) L-Glutamat und entweder 0,75% (w/v) Butyrobetain-methylester (BBMe) oder 0,75% (w/v) Butyrobetain-ethylester (BBEt) enthielt, überimpft und bei 30°C und 140 upm inkubiert. Nach 40 h betrug die OD650 von beiden Kulturen ca. 9,0 und die Kulturen befanden sich in der stationären Phase. Nach weiteren 34 h wurden Proben entnommen. Die Zellen wurden zentrifugiert (11 000 upm, 5 min) und der Überstand wurde mittels HPLC auf den Gehalt an Butyrobetain, L-Carnitin und nicht umgesetzten Butyrobetain-ester untersucht. Die Ergebnisse sind in Tabelle 2 zusammengefasst. Als Kontrollversuch wurden Butyrobetain-methylester (BBMe) und Butyrobetain-ethylester (BBEt) jeweils im gleichen Medium und unter den gleichen Bedingungen, jedoch ohne Zusatz von Zellen, gelagert. […]

[2] = test system: Stamm HK4 (DSM 2938); assay: Growth of strain HK4 on butyrobetaine esters or butyrobetaine as sole C source; assay type: cell-based, Agrobacterium/Rhizobium HK4 (DSM 2938); settings: 30°C, 140 upm, 48 to 96 h
Description: Der Stamm HK4 (DSM 2938) wurde auf Minimalmedium Agarplatten unter Zusatz von 0,4% (w/v) Betain als einziger C-Quelle nach Einzelkolonie-Ausstrich bei 30°C für 48 bis 72 h inkubiert. Zur Anzucht wurden Einzelkolonien des Stammes von der Agarplatte in das Minimalmedium enthaltend Butyrobetain-methylester (BBMe) und Butyrobetain-ethylester (BBEt) als jeweils einziger C-Quelle überimpft und bei 30°C und 140 upm für 48 bis 96 h inkubiert. Es wurde ein Kontrollversuch durchgeführt, bei dem die Anzucht des Stammes HK4 (DSM 2938) unter den gleichen Bedingungen, jedoch unter Zusatz von Butyrobetain anstelle eines Butyrobetain-esters als einziger C-Quelle, erfolgte.

[3] = test system: Hydrolasen im Zellextrakt des Stammes HK1349 (DSM 3944); assay: Substrate specificity of the hydrolases of HK1349 (pH-stat titration); assay type: biochemical, Agrobacterium/Rhizobium HK1349 (DSM 3944); settings: 5% (v/v) ester emulsion, 37°C; for Spezifische Hydrolase-Aktivität [U/mg Protein]: lyophilised Triton X-114 supernatant of HK1349; for Relative spezifische Hydrolase-Aktivität [%]: 100% = 0,039 U/mg Protein
Description: Die gemäss Beispiel 4.1. erhaltene Zellsuspension (HK1349 (DSM 3944), OD650 nm 37, 50 mM Natriumphosphat-Puffer, pH 7,5) wurde durch 10 minütige Behandlung mit Ultraschall unter Eisbadkühlung aufgeschlossen, mit Triton X-114 (5% (v/v); 30 min; 25°C) inkubiert und dann zentrifugiert (4 000 upm; 10 min; 4°C). Der Überstand wurde lyophilisiert. Der lyophilisierte Überstand (100 mg) wurde in Natriumphosphatpuffer (50 mM; pH 7,5; 1,0 mL) gelöst und zu Emulsionen von Essigsäure-ethylester, Buttersäure-ethylester und Buttersäure-methylester (5% (v/v) Ester emulgiert mittels eines Ultraturrax in destilliertem Wasser enthaltend 2% (w/v) Gummi arabicum; 20 mL) bei 37°C gegeben. Die bei der Hydrolyse des Esters freigesetzte Säure wird mit NaOH (0,01 M) unter Verwendung eines pH-Stats titriert. 1 U (Unit) entspricht der Menge an Säure (in µmol), die pro Minute freigesetzt wird. Die höchste spezifische Hydrolase-Aktivität (0,039 U/mg Protein) wurde als 100%-Wert betrachtet. Die Ergebnisse sind in Tabelle 5 zusammengestellt.

[4] = test system: Hydrolasen im Zellextrakt des Stammes HK1349 (DSM 3944); assay: Hydrolase activity of HK1349 supernatant after cell disruption and treatment with detergents (4-nitrophenyl acetate assay); assay type: biochemical, Agrobacterium/Rhizobium HK1349 (DSM 3944); settings: supernatant after cell disruption and treatment with 5% (v/v) detergent, 30 min, 25°C; 100% = 0,30 U/mg Protein
Description: Die Bestimmung der Hydrolase-Aktivität erfolgte photometrisch mittels Essigsäue-4-nitrophenylester-Assay. Hierzu wurde die Proteinlösung (900 µL) mit einer Lösung von Essigsäure-4-nitrophenylester (10 mM in Dimethylsulfoxid; 100 µL) bei 25°C versetzt. Die Absorption des während der Hydrolyse gebildeten 4-Nitrophenols (e = 15 × 10^3 × M^-1 cm^-1) wurde bei 410 nm gemessen. 1 Unit (U) entspricht der Menge 4-Nitrophenol (in µmol), die pro Minute freigesetzt wird. Die Bestimmung des Proteingehaltes der eingesetzten Proteinlösung erfolgte mit dem BCA (Bicin choninic acid) Protein Assay kit (Pierce) nach Anleitung des Herstellers. Die spezifische Hydrolase-Aktivität wird angegeben in U/mg Protein und entspricht der Menge 4-Nitrophenol (in µmol), die pro Minute und mg Protein freigesetzt wird.
Die gemäss Beispiel 4.1. erhaltene Zellsuspension (HK1349 (DSM 3944), OD650 nm 37, 50 mM Natriumphosphat-Puffer, pH 7,5) wurde durch 10 minütige Behandlung mit Ultraschall unter Eisbadkühlung aufgeschlossen, mit verschiedenen Detergentien (5% (v/v) Detergenz; 30 min; 25°C) inkubiert und die Zelltrümmer wurden abzentrifugiert (4 000 upm; 10 min; 4°C). Die spezifische Hydrolase-Aktivität der Überstände wurde mittels Essigsäure-4-nitrophenylester-Assay bestimmt. Die höchste spezifische Hydrolase-Aktivität (0,30 U/mg Protein) wurde als 100%-Wert betrachtet. Die Ergebnisse sind in Tabelle 4 zusammengestellt. Die höchste spezifische Hydrolase-Aktivität wurde unter Verwendung von Triton X-114 beobachtet.

[5] = 1,0 % (w/v) as sole C source in minimal medium

Compound | Wachstum [OD650] [2, 5] | Spezifische Hydrolase-Aktivität [U/mg Protein] [3] | Relative spezifische Hydrolase-Aktivität [%] [3] [%] | Relative spezifische Hydrolase-Aktivität [%] [4] [%] | further results
CCOC(=O)CCC[N+](C)(C)C [BBEt, Butyrobetain-ethylester] | 0,76 OD650 | – | – | – | Hydrolyse der Butyrobetain-ester zu Butyrobetain [1]: keine Hydrolyse; Wachstum [OD650] ([2]; 0,2 % (w/v) as sole C source in minimal medium): 0,23 OD650
COC(=O)CCC[N+](C)(C)C [BBMe, Butyrobetain-methylester] | 0,76 OD650 | – | – | – | Hydrolyse der Butyrobetain-ester zu Butyrobetain [1]: keine Hydrolyse
CCCC(=O)OCC [Buttersäure-Ethylester] | – | 0,028 U/mg Protein | 72 | – | –
CCCC(=O)OC [Buttersäure-Methylester] | – | 0,038 U/mg Protein | 97 | – | –
C[N+](C)(C)CCCC(=O)[O-] [Butyrobetain] | 7,0 OD650 | – | – | – | –
CCOC(C)=O [Essigsäure-Ethylester] | – | 0,039 U/mg Protein | 100 | – | –
CCCCCCCCCCCCOS(=O)(=O)O [SDS] | – | – | – | 26 | –
CCCCCCCC/C=C\CCCCCCCC(=O)OCCOCC(OCCO)C1OCC(OCCO)C1OCCO (stereo not drawn) [Tween 80] | – | – | – | 80 | –
Triton X-100 | – | – | – | 64 | –
